Laboratory results reported in patent US20220183290A1, “CHEMICALS WHICH ALTER THE PRODUCTION OF METABOLITES IN CULTIVATED PLANTS” (priority 2017, published 2022).

What was measured:
[1] = test system: Cannabis sp. hemp varietal clones (Happy Camper); test: Example 1: indoor cultivation experiment, elicitor treatments, secondary metabolite content of flowers; assay type: in vivo; details: for terpene production (in words): applied alone or in conjunction with other elicitor treatments; for Total terpene production, change: either MeJA and/or SA (pooled) vs control or si only
Excerpt: Applicant performed an indoor cultivation experiment with 30 identical Cannabis sp. hemp varietal clones (Happy Camper, CBDRx LLC, Colorado). Each of the thirty plants was randomly assigned to one of six treatment groups to test the efficacy and effectiveness of each elicitor compound in isolation or in combination. Plants were maintained in an isolated indoor growing environment under eight, 600-watt double-ended electronic high pressure sodium lamps (Gavita International B.V) under a photoperiod of 12 hours of light per 24-hour day and potted in 1-gallon black plastic pots with a 55% coco coir/45% perlite media (Miller Soils LLC, Longmont, Colo., USA), then transplanted into 10-gallon fabric pots (Smart Pot, High Caliper Growing, USA) filled with a mixture of 75% coco coir and 25% cork (DNA-Mills Ltd, London, England), irrigated as needed with tap water and fertilized consistently to maintain good health with a 4-20-39 base nutrient supplemented with 15-0-0 Calcium Nitrate and commercially available magnesium sulfate (Hydro Gardens International, Colorado Springs, Colo.) at a rate of 300-500 ppm (TDS) as needed. A microbial inoculant (Tribus Original, Impello Biosciences, Ft. Collins, Colo.) was applied at a rate of 1 mL/gallon of nutrient solution every watering to improve plant health. Drip emitters and an automated watering system supplied water and nutrients equally to each plant. Temperatures in the growing environment were maintained at 75° F.±15° F. with a relative humidity range of 30-60%. Every 14 days of growth, all plants were supplemented with a fish protein hydrolysate at a rate of 5 ml/gallon of the previously mentioned nutrient solution to improve nutrition (Innate Bloom 4-2-1, Impello Biosciences, Colorado).
Treatment groups included (1) applications of MeJA as a foliar spray at a concentration of 7.5 mM, (2) SA as a foliar spray at a concentration of 0.5 mM, (3) SiA as a root drench at a concentration of 3 mM, (4) MeJA as a foliar spray at a concentration of 7.5 mM and a root drench of SiA at a concentration of 3 mM, and (5) MeJA as a foliar spray at a concentration of 7.5 mM and a root drench of SiA at a concentration of 3 mM and foliar applications of SA at a concentration of 0.5 mM. The control group was not treated with any applications aside from normal fertilization. Foliar applications of MeJA were performed in the morning hours, within 30 minutes of daybreak, with applications covering plant leaves until dripping. Applications of SA for all SA treatment groups were performed in the morning hours, within 30 minutes of daybreak, with applications covering plant leaves until dripping. Applications of SiA were performed by hand additions of SiA mixtures at the desired concentration to the plant roots of treatment plants; control plants were treated with plain water in the same volume at the same time without the addition of SiA.
7.5 mM solutions of MeJA (mixture of isomers) were prepared in 1-liter volumes using 93% purity MeJA stock solution (TCI America, CAS #[…]) added to reverse osmosis water dropwise with a pipettor while stirring. The pH of the final solution was not adjusted. 0.5 mM solutions of SA were prepared from a 0.5M stock solution, which was prepared using Salicylic Acid powder (ThermoFisher Scientific, CAS #69-72-7), dissolved in 200-proof anhydrous EtOH, denatured (VWR Life Sciences) and stored in a sealed glass bottle. Plant-useable solution was prepared by diluting 1000 μL, of the stock SA solution in 999 mL of reverse osmosis water. Foliar applications of MeJA and SA were made with a 1-L volume low-pressure hand-pump sprayer (Mondi Products LTD, Canada). Silicic Acid solutions were prepared as needed using Silicic Acid stock powder (extra pure light DAB, Millipore Sigma, CAS #7699-41-4), dissolved in reverse osmosis water to the desired final concentration.
Plants were maintained under identical conditions in the same growing environment. […]

[2] = test system: plants from clone (Charlotte x Tangie); test: Example 4: flower yield / plant weight with varying concentrations of MeJA foliar spray; assay type: in vivo, Cannabis sativa
Excerpt: Example 4: Assessment of Flower Yield in plants treated with varying concentrations of MeJA. […] In turn, we designed an experiment to evaluate the efficacy and effectiveness of applying MeJA as a foliar spray to plants in different concentrations.
Fourteen (14) identical plants from clone (Charlotte x Tangie, CBDRx) were cultivated in 1-gallon black plastic pots in a media mixture of 55% coco coir, 45% perlite (Miller Soils LLC, Colorado). Plants were rooted in 1-inch A-OK rockwool cubes (Grodan, B.V.) uniformly prior to transplant into the 1-gallon pots. At the time of transplant, plants were also transitioned from a photoperiod of 18 hours of light per day to a photoperiod of 12 hours of light per day to induce flowering. Each plant was maintained with a standard, commercially available 3-part (4-20-39, CaNO3, MgSO4) nutrient solution at a recommended rate of 350 ppm (Hydro Gardens International, CO), hand watered as needed with 1 L per plant. Plants were randomly assigned to one of four groups, including three treatment groups and one control group: 0 mM MeJA (control), 5 mM MeJA (low), 7.5 mM MeJA (med), and 10 mM MeJA (high). Plants were maintained under identical environmental conditions on a 4′×8′ black plastic table (Botanicare, USA) under 1200 w of light (Gavita Inc, Ne). […]

[3] = day 28, MeJA alone or in conjunction with other elicitors vs non-MeJA treatment, p≤0.05

Row | SMILES | terpene production (in words) [1] | Total cannabinoids concentration, change [1, 3] | total CBD concentration, change [1, 3] | total THC concentration, change [1, 3] | Total terpene production, change ([1]; day 28, p≤0.05) | Total CBDA, change ([1]; day 42, MeJA treatments vs no MeJA treatments, p≤0.0005) | Total THC-A, change ([1]; day 42, MeJA treatments vs no MeJA treatments, significance less than 0.0005) | Total cannabinoids (THC, THCA, CBD, CBDA), change ([1]; day 42, groups with MeJA alone or in combination vs groups without MeJA, p≤0.001) | total cannabinoid concentration, change ([1]; day 42, plants that received MeJA treatments (MeJA or MeJA+SiA or MeJA+SiA+SA) vs control group, p≤0.005) | total cannabinoid contents, change ([1]; day 63, some sort of MeJA treatment (MeJA only, MeJA with SiA, or ALL) vs control group, p≤0.05) | total cannabinoid contents, change ([1]; day 63, some sort of MeJA treatment (MeJA only, MeJA with SiA, or ALL) vs no MeJA (control, SA only, SiA only), p≤0.000001) | CBD content, change ([1]; day 63, vs control plants, p≤0.05 (ALL: p≤0.01)) | cannabinoid production (in words) ([1]; throughout the flowering cycle, applied alone or in conjunction with other treatments) | impact on plant performance ([2]; exogenous foliar applications, 5-10 mM MeJA) | differences in weights between the treatment groups ([2]; foliar spray 0, 5, 7.5, 10 mM MeJA every 14 days from day 7 of the reproductive cycle) | THCA production (in words) ([1]; applied independently without supplemental MeJA applications) | THCA, change ([1]; day 63, SA treatment plants vs control plants, p≤0.05) [%]
1 | CC/C=C\CC1C(=O)CCC1CC(=O)OC (stereo not shown) [MeJA, Methyl Jasmonate] | increased terpene production | +61.96% | +61.49% | +61.30% | +35% | +54.99% | +56.82% | +54.67% | +41.49% | +33.11% | +58.64% | +23.27% | consistently increased cannabinoid production | did not negatively impact plant performance | No significant differences | – | –
2 | O=C(O)c1ccccc1O [SA, Salicylic acid] | increased terpene production | – | – | – | +35% | – | – | – | – | – | – | – | – | – | – | decreased THCA production | −45.67
